Data taken from PubChem BioAssay AID1963449 (Molecular Pharmacology Branch, DTP, NCI, 2024).
Several values for one entry are separate records, joined by “and”; a condition that tells them apart may be missing. Identical values can stand only once.

Tested on: 596521-263-R-J1-PDC complex spheroid growth
Assay: Anticancer human tumor 596521-263-R-J1-PDC patient-derived soft tissue sarcoma cell line growth inhibition [Asc]
Settings: for viability, T/C: stronger effect = lower value
Method: Multicellular complex tumor spheroid response to apoptosis pathway targeting inhibitors Alrizomadlin, Pelcitoclax, and Dasminapant in combination with a variety of drugs and investigational agents in selected tumor cell lines
The MDM2 inhibitor alrizomadlin, the Bcl-2/Bcl-xL inhibitor pelcitoclax, and the IAPs inhibitor dasminapant were evaluated both individually and in combination with standard of care and investigational anticancer small molecules within a complex spheroid model of solid tumors. . Complex spheroids include a stromal component modeled by human endothelial cells (HUVEC) and fibroblasts modeled by human mesenchymal stem cells (MSCs). The concentration ranges selected for each drug and investigational agent were based upon clinically achievable concentrations if the clinical Cmax of the agent was known.
Compounds. The drugs and investigational agents: alrizomadlin (APG-115; NSC831270), pelcitoclax (APG-1252; NSC835773), dasminapant (APG-1387;NSC834197), TAK-243 (NSC785004), copanlisib (NSC809693), olaparib (NSC753686), talazoparib (NSC767125), cobimetinib (NSC 768068), eltanexor (KPT-8602, NSC 794443), abemaciclib (NSC 768073), sotorasib (NSC818433), adagrasib (NSC 831453), MRTX-1133 (NSC 836407), Iadademestat (ORY1001, NSC 806812), and RMC-4630 (NSC839698), were obtained from the NCI Developmental Therapeutics Program Chemical Repository. The FDA-approved anticancer drug set is available from the Developmental Therapeutics Program at https://dtp.cancer.gov/organization/dscb/obtaining/available plates.htm. […] The stock solutions were prepared in dimethyl sulfoxide (DMSO, Sigma-Aldrich, St. Louis, MO, cat. D2650) at 800-fold the tested concentration and stored at -70 degrees C prior to their use. All drugs and investigational agents were tested over a range starting from a high concentration at or near the clinical Cmax and decreasing in half-log increments. If the clinical Cmax for an agent had not been determined, the highest concentration tested was 10 microM.
The patient-derived cancer (PDC) cell lines include five colon adenocarcinomas: 186277-243-T-J2-PDC, 616215-338-R-J1-PDC, 439559-082-T-J2-PDC, 463943-066-T-J2-PDC, and 519858-162-T-J1-PDC; three pancreatic carcinomas: 323965-272-R-J2-PDC, 521955-158-R6-J3-PDC, and 521955-158-R2-J5-PDC; two uterine sarcomas: 327498-152-R-J2-PDC and 993429-296-R-J1-PDC; two rhabdomyosarcomas: 755483-174-R-J1-PDC and 772245-204-R-J1-PDC; two soft tissue sarcomas: 126254-015-R-J1-PDC and 494315-158-R-J1-PDC; two malignant fibrous histiocytomas: 317291-083-R-J1-PDC and 596521-263-R-J1-PDC; two breast carcinomas: 171881-019-R-J1-PDC and 885512-296-R-J2-PDC; and one ovarian carcinoma: 6556581-035-R-J-PDC were obtained from the NCI PDMR, (https://pdmr.cancer.gov). The established cell lines HSSY-2 synovial sarcoma (RRID:CVCL 8719), SYO-1 synovial sarcoma (RRID:CVCL_7146), MPNST malignant peripheral neural sheath tumor were obtained from the Sloan Kettering Institute. The following established cell lines were purchased from the American Type Culture Collection (ATCC, Manassas, VA), Sor the received from the NCI repository:, PANC-1 pancreatic carcinoma (CRL-1469, RRID:CVCL_0480), OVCAR-5 ovarian carcinoma (RRID:CVCL_1628), OVCAR-8 ovarian carcinoma (RRID:CVCL_1629), , MCF-7 breast carcinoma (CRL-12584, RRID:CVCL_0031), MDA-MB-231 breast carcinoma (CRL-12532, RRID:CVCL_0062), NCI-H1876 small cell lung carcinoma (CRL-5902, RRID:CVCL_1503), NCI-H510A small cell lung carcinoma (HTB-184, RRID:CVCL_1565), NCI-H1417 (CRL-5869, RRID:CVCL_1469), and NCI-H196 small cell lung carcinoma (CRL-5823, RRID:CVCL_1509). Dr. Peter Houghton (Greehey Children's Cancer Research Institute, University of Texas Health Science Center, San Antonio, TX) provided Rh-18 rhabdomyosarcoma (RRID:CVCL_1659). Pooled donor human umbilical vein endothelial cells (HUVEC, Lonza, cat. CC-2519) and human mesenchymal stem cells (hMSC, Lonza, cat. PT-2501) were purchased from Lonza (Walkersville, MD).
Cell Culture. […]
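Note: spheroids exposed to compounds for 7 days.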

Cn1ncnc1[C@H]1c2n[nH]c(=O)c3cc(F)cc(c23)N[C@@H]1c1ccc(F)cc1
viability, T/C (compound 0.000316 µM): 95.5% and 111% and 105% | viability, T/C (compound 0.001 µM): 101% and 97% and 98.5% | viability, T/C (compound 0.00316 µM): 97.5% and 93.9% and 87.1% | viability, T/C (compound 0.01 µM): 87.1% and 98% and 103% | viability, T/C (compound 0.0316 µM): 105% and 96.6% and 94.3% | viability, T/C (compound 0.1 µM): 79.6% and 84.5% and 82.6% | IC50 (curve of compound): > 100 nM

O=C(c1cc(Cc2n[nH]c(=O)c3ccccc23)ccc1F)N1CCN(C(=O)C2CC2)CC1 + CCN1C(C(=O)NC23CCC(C(=O)O)(CC2)CC3)C(c2cccc(Cl)c2F)C2(C(=O)Nc3cc(Cl)ccc32)C12CCCCC2
IC50 (curve of first compound, second compound 0.00949 µM): > 10000 nM | IC50 (curve of first compound, second compound 0.03 µM): > 10000 nM | IC50 (curve of first compound, second compound 0.0949 µM): > 10000 nM | IC50 (curve of first compound, second compound 0.3 µM): > 10000 nM | IC50 (curve of first compound, second compound 0.949 µM): > 10000 nM | IC50 (curve of first compound, second compound 3 µM): > 10000 nM | viability, T/C (second compound 0.00949 µM, first compound 0.0316 µM): 101% | viability, T/C (second compound 0.00949 µM, first compound 0.1 µM): 87.5% | viability, T/C (second compound 0.00949 µM, first compound 0.316 µM): 95.5% | viability, T/C (second compound 0.00949 µM, first compound 1 µM): 95% | viability, T/C (second compound 0.00949 µM, first compound 3.16 µM): 88% | viability, T/C (second compound 0.00949 µM, first compound 10 µM): 67.5% | viability, T/C (second compound 0.03 µM, first compound 0.0316 µM): 101% | viability, T/C (second compound 0.03 µM, first compound 0.1 µM): 102% | viability, T/C (second compound 0.03 µM, first compound 0.316 µM): 97.6% | viability, T/C (second compound 0.03 µM, first compound 1 µM): 93.3% | viability, T/C (second compound 0.03 µM, first compound 3.16 µM): 88.4% | viability, T/C (second compound 0.03 µM, first compound 10 µM): 64.3% | viability, T/C (second compound 0.0949 µM, first compound 0.0316 µM): 101% | viability, T/C (second compound 0.0949 µM, first compound 0.1 µM): 93% | viability, T/C (second compound 0.0949 µM, first compound 0.316 µM): 108% | viability, T/C (second compound 0.0949 µM, first compound 1 µM): 104% | viability, T/C (second compound 0.0949 µM, first compound 3.16 µM): 90.6% | viability, T/C (second compound 0.0949 µM, first compound 10 µM): 58.6% | viability, T/C (second compound 0.3 µM, first compound 0.0316 µM): 95.8% | viability, T/C (second compound 0.3 µM, first compound 0.1 µM): 104% | viability, T/C (second compound 0.3 µM, first compound 0.316 µM): 107% | viability, T/C (second compound 0.3 µM, first compound 1 µM): 96.8% | viability, T/C (second compound 0.3 µM, first compound 3.16 µM): 96.9% | viability, T/C (second compound 0.3 µM, first compound 10 µM): 68.4% | viability, T/C (second compound 0.949 µM, first compound 0.0316 µM): 104% | viability, T/C (second compound 0.949 µM, first compound 0.1 µM): 89.5% | viability, T/C (second compound 0.949 µM, first compound 0.316 µM): 96.3% | viability, T/C (second compound 0.949 µM, first compound 1 µM): 91.2% | viability, T/C (second compound 0.949 µM, first compound 3.16 µM): 75.5% | viability, T/C (second compound 0.949 µM, first compound 10 µM): 66.3% | viability, T/C (second compound 3 µM, first compound 0.0316 µM): 75.2% | viability, T/C (second compound 3 µM, first compound 0.1 µM): 67.3% | viability, T/C (second compound 3 µM, first compound 0.316 µM): 74.2% | viability, T/C (second compound 3 µM, first compound 1 µM): 73.1% | viability, T/C (second compound 3 µM, first compound 3.16 µM): 72.5% | viability, T/C (second compound 3 µM, first compound 10 µM): 64.8%

NC1CCC(NC2CC2c2ccccc2)CC1 (stereo unspecified) + Cc1c(S(C)(=O)=O)c(-c2cc(F)cc(N3CCN(c4ccc(NS(=O)(=O)c5ccc(NC(CCN6CCC(C(=O)OCCCP(=O)(O)O)CC6)CSc6ccccc6)c(S(=O)(=O)C(F)(F)F)c5)cc4)CC3)c2)c(-c2ccc(Cl)cc2)n1C(C)C
IC50 (curve of first compound, second compound 0.0316 µM): > 100 nM | IC50 (curve of first compound, second compound 0.1 µM): > 100 nM | IC50 (curve of first compound, second compound 0.316 µM): > 100 nM | IC50 (curve of first compound, second compound 1 µM): > 100 nM | IC50 (curve of first compound, second compound 3.16 µM): > 100 nM | IC50 (curve of first compound, second compound 10 µM): < 0.316 nM | viability, T/C (second compound 0.0316 µM, first compound 0.000316 µM): 79.8% | viability, T/C (second compound 0.0316 µM, first compound 0.001 µM): 88.9% | viability, T/C (second compound 0.0316 µM, first compound 0.00316 µM): 80.2% | viability, T/C (second compound 0.0316 µM, first compound 0.01 µM): 90.4% | viability, T/C (second compound 0.0316 µM, first compound 0.0316 µM): 89.2% | viability, T/C (second compound 0.0316 µM, first compound 0.1 µM): 80.6% | viability, T/C (second compound 0.1 µM, first compound 0.000316 µM): 86.7% | viability, T/C (second compound 0.1 µM, first compound 0.001 µM): 91.8% | viability, T/C (second compound 0.1 µM, first compound 0.00316 µM): 77.5% | viability, T/C (second compound 0.1 µM, first compound 0.01 µM): 89.7% | viability, T/C (second compound 0.1 µM, first compound 0.0316 µM): 86.5% | viability, T/C (second compound 0.1 µM, first compound 0.1 µM): 80.8% | viability, T/C (second compound 0.316 µM, first compound 0.000316 µM): 84.1% | viability, T/C (second compound 0.316 µM, first compound 0.001 µM): 77.6% | viability, T/C (second compound 0.316 µM, first compound 0.00316 µM): 75.9% | viability, T/C (second compound 0.316 µM, first compound 0.01 µM): 77.9% | viability, T/C (second compound 0.316 µM, first compound 0.0316 µM): 76.7% | viability, T/C (second compound 0.316 µM, first compound 0.1 µM): 75.7% | viability, T/C (second compound 1 µM, first compound 0.000316 µM): 81.2% | viability, T/C (second compound 1 µM, first compound 0.001 µM): 75.8% | viability, T/C (second compound 1 µM, first compound 0.00316 µM): 66.3% | viability, T/C (second compound 1 µM, first compound 0.01 µM): 72.7% | viability, T/C (second compound 1 µM, first compound 0.0316 µM): 68.7% | viability, T/C (second compound 1 µM, first compound 0.1 µM): 74.1% | viability, T/C (second compound 3.16 µM, first compound 0.000316 µM): 69.1% | viability, T/C (second compound 3.16 µM, first compound 0.001 µM): 55.7% | viability, T/C (second compound 3.16 µM, first compound 0.00316 µM): 51.9% | viability, T/C (second compound 3.16 µM, first compound 0.01 µM): 58.9% | viability, T/C (second compound 3.16 µM, first compound 0.0316 µM): 55.4% | viability, T/C (second compound 3.16 µM, first compound 0.1 µM): 53.4% | viability, T/C (second compound 10 µM, first compound 0.000316 µM): 48.6% | viability, T/C (second compound 10 µM, first compound 0.001 µM): 42.9% | viability, T/C (second compound 10 µM, first compound 0.00316 µM): 44.2% | viability, T/C (second compound 10 µM, first compound 0.01 µM): 49% | viability, T/C (second compound 10 µM, first compound 0.0316 µM): 35.7% | viability, T/C (second compound 10 µM, first compound 0.1 µM): 43%
